Assay results taken from ChEMBL document CHEMBL3399969, “Multifunctional scutellarin-rivastigmine hybrids with cholinergic, antioxidant, biometal chelating and neuroprotective properties for the treatment of Alzheimer's disease” (Bioorg Med Chem, 2015).
Active and inactive are the calls of the source. The rule behind the calls is not given here.

Experiments:
[1] = target: T1, Acetylcholinesterase (Rattus norvegicus, UniProt P37136); test: Inhibition of rat cortex AChE using acetylthiocholine iodide as substrate after 15 mins by Ellman method
T1 sequence (P37136 whole entry): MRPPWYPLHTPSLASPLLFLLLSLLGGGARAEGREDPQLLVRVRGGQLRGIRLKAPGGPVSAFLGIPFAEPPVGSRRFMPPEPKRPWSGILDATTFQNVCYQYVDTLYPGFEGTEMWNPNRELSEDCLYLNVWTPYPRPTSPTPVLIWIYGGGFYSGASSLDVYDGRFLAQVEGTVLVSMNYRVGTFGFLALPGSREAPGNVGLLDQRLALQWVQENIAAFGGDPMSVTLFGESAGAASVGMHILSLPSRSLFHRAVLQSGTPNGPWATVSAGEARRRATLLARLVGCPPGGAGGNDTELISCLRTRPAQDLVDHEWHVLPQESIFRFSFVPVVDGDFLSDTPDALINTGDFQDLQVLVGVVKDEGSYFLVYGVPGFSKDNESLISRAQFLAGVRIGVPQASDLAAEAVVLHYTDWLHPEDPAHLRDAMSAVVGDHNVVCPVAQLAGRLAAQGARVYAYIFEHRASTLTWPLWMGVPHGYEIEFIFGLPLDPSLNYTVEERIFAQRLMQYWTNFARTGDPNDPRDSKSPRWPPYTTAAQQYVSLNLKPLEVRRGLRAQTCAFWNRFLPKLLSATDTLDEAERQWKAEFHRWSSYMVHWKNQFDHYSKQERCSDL

[2] = species: Rattus norvegicus; test: Selectivity index, ratio of IC50 for rat serum BuChE to IC50 for rat cortex AChE; format: cell-free
[3] = Metal chelating activity of the compound assessed as Zn2+ complex formation after 30 mins by UV-Vis spectrometry; format: physicochemical; conditions: 0.5 h
[4] = test system: Mus musculus; test: Toxicity in Kunming mouse assessed as change in behavior at 6 mg/kg; format: organism-based; set-up: dose 6 mg/kg; conditions: in vivo
[5] = test system: Mus musculus; test: Neuroprotective effect in Kunming mouse hippocampus assessed as reduction of scopolamine-induced vitality of AChE at 8 mg/kg by Ellman method; format: functional
[6] = target: Acetylcholinesterase (Electrophorus electricus) (UniProt O42275); test: Mixed-type inhibition of electric eel AChE using acetylthiocholine iodide as substrate at 0.5 to 1.5 uM after 15 mins by Lineweaver-Burk reciprocal plot analysis
Chain of Acetylcholinesterase (Electrophorus electricus) (O42275 24-633 limits assumed): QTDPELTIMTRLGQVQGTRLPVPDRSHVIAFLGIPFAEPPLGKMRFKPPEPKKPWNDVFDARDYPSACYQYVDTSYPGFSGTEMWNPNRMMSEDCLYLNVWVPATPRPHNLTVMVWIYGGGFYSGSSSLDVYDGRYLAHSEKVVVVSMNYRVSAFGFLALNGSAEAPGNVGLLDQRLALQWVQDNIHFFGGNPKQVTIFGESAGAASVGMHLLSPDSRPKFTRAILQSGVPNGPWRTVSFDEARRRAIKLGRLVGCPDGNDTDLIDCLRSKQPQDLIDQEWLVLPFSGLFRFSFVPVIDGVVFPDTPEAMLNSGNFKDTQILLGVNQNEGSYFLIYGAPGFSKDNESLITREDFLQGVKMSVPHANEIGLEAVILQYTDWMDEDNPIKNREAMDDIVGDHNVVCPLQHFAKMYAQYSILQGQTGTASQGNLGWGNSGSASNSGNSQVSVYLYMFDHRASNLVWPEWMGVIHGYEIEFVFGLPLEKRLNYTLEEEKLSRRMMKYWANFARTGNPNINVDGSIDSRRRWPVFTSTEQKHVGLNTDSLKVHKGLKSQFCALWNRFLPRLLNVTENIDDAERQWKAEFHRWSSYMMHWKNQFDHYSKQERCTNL

[7] = test system: Mus musculus; test: Toxicity in Kunming mouse assessed as change in behavior at 2 to 8 mg/kg; format: organism-based; set-up: dose 2-8 mg/kg; conditions: in vivo
[8] = Antioxidant activity assessed as trolox equivalent of […]-induced radical scavenging activity by ORAC-FL method; format: physicochemical
[9] = species: Mus musculus; test: Neuroprotective effect in scopolamine-treated Kunming mouse hippocampus assessed as increase in vitality of ChAT by Ellman method; format: functional, organism-based
[10] = Metal chelating activity of the compound assessed as Cu2+ complex formation after 30 mins by UV-Vis spectrometry; format: physicochemical; conditions: 0.5 h
[11] = Metal chelating activity of the compound assessed as Al3+ complex formation after 30 mins by UV-Vis spectrometry; format: physicochemical; conditions: 0.5 h
[12] = species: Mus musculus; test: Neuroprotective effect in Kunming mouse hippocampus assessed as reduction of scopolamine-induced vitality of AChE by Ellman method; format: functional, organism-based
[13] = species: Mus musculus; test: Cognitive enhancing effect in Kunming mouse assessed as inhibition of scopolamine-induced decreased spontaneous alternation behavior after 30 mins by T-maze test; format: functional, organism-based
[14] = test system: Mus musculus; test: Neuroprotective effect in scopolamine-treated Kunming mouse hippocampus assessed as increase in vitality of ChAT at 8 mg/kg by Ellman method; format: functional
[15] = Metal chelating activity of the compound assessed as Fe2+ complex formation after 30 mins by UV-Vis spectrometry; format: physicochemical; conditions: 0.5 h
[16] = test system: Mus musculus; test: Cognitive enhancing effect in Kunming mouse assessed as inhibition of scopolamine-induced decreased spontaneous alternation behavior at 8 mg/kg after 30 mins by T-maze test; format: functional; set-up: scale not given: the % may be the effect or the level left
[17] = Inhibition of rat serum BuChE using butyrylthiocholine iodide as substrate after 15 mins by Ellman method; format: cell-free
[18] = test system: PC-12; test: Neuroprotective effect against H2O2-induced rat PC12 cell injury assessed as cell viability at 10 uM incubated for 2 hrs prior to H2O2 challenge measured after 24 hrs by MTT assay (reference value: 57.6%); format: functional; conditions: read-out: Activity
[19] = test system: Mus musculus; test: Neuroprotective effect in scopolamine-treated Kunming mouse hippocampus assessed as increase in vitality of ChAT at 6 mg/kg by Ellman method; format: functional
[20] = test system: Mus musculus; test: Neuroprotective effect in Kunming mouse hippocampus assessed as reduction of scopolamine-induced vitality of AChE at 6 mg/kg by Ellman method; format: functional
[21] = test system: Mus musculus; test: Cognitive enhancing effect in Kunming mouse assessed as inhibition of scopolamine-induced decreased spontaneous alternation behavior at 6 mg/kg after 30 mins by T-maze test; format: functional; set-up: scale not given: the % may be the effect or the level left

**Q.** What does the source list for CCN(CC)C(=O)Oc1ccc(-c2cc(=O)c3c(O)c(OC)c(OC)cc3o2)cc1?
**A.** IC50 [1]: 570 nM; Ratio IC50 [2]: 39.7; Activity [3]: Not Active; Activity [4]: Non-toxic; Activity [5]: 0.11 U/mg; inhibition [6]: Active; Activity [7]: Non-toxic; Activity [8]: 1.3; Activity [9]: Dose-dependent effect; Activity [10]: Not Active; Activity [11]: Not Active; Activity [12]: Dose-dependent effect; Activity [13]: Dose-dependent effect; Activity [14]: 45.2 U/mg; Activity [15]: Not Active; Activity [16]: 68.7%; IC50 [17]: 22600 nM; viability at 10 µM [18]: 78.5%

**Q.** Which Activity [19] does the source give for CCN(C)C(=O)Oc1cccc([C@H](C)N(C)C)c1 [RIVASTIGMINE] here?
**A.** 44.8 U/mg

**Q.** And the Activity [20]?
**A.** 0.087 U/mg

**Q.** And the IC50 [17]?
**A.** 1400 nM

**Q.** What about the Activity [21] of the same compound?
**A.** 67.3%
